Data as given in BindingDB's records for patent US10065961 (Ogeda, 2018).

Target: T1, Neuromedin-K receptor (Homo sapiens, UniProt P29371)
T1 sequence (P29371 whole entry): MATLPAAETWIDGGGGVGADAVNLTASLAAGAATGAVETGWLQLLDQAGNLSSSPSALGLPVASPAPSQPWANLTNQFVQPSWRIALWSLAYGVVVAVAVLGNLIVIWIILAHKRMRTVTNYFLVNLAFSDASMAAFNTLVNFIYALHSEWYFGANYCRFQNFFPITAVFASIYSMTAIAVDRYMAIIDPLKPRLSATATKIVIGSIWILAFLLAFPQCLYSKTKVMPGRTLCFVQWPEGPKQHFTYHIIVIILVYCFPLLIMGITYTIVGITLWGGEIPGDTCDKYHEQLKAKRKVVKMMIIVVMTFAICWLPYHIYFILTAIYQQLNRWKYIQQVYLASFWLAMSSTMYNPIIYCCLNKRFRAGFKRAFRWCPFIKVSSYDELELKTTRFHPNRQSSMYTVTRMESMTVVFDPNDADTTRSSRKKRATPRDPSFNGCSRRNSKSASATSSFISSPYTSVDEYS
Experiment: Aequorin Assay with Human NK-3 Receptor

IC50: 0.051 µM
SMILES: Cc1coc(-c2nnc3n2CCN[C@@H]3C)n1 [US10065961, Compound 27]
